Data from PMC12040169 (PLOS Biology, 2025).

Test: in vitro
Conditions: human, hela cells, % viability

SMILES	viability at 28.5 h, 10 µM [%]
Cc1cc(C)c2c(n1)oc1c(Cl)ncnc12 [CBK008822]	93
CCOC(=O)NC(Nc1nc2ccccc2s1)(C(F)(F)F)C(F)(F)F [CBK008913]	93.6
CN1C(=S)SC(C)(N(O)C(=O)NC2CCCCC2)C1(C)C (stereo not shown) [CBK008916]	110
COc1ccc(NC(=O)CSc2nsc(SCC(=O)Nc3ccc(OC)cc3)n2)cc1 [CBK008918]	92.5
CCC1(C)CC(C(N)=S)CCO1 (stereo not shown) [CBK008954]	97
CC12CN3CC(C)(CN(C1)C3c1cccc([N+](=O)[O-])c1)C2=O (stereo not shown) [CBK009030]	88.9
O=C(c1ccc2ccccc2c1)C12CN3CN(CN(C3)C1)C2 [CBK009031]	89.1
CCCCOc1ccc(-c2cn(CC(N)=O)cn2)cc1 [CBK009035]	110
Cc1onc(-c2ccccc2)c1-c1n[nH]c(=S)o1 [CBK009044]	76.7
CN1CCCCC/C1=N/C(=S)CN1CCCC1=S [CBK009052]	96.3
COC(=O)[C@H]1O[C@H](c2ccccc2)[C@@H]2C(=O)N(C)C(=O)[C@@H]21 [CBK009058]	87.6
CC(C)=NNC(=O)CSc1nc(N2CCOCC2)c2ccccc2n1 [CBK009114]	85.2
CC1=NC(O)(C(F)(F)F)C(c2ccccc2)S1 (stereo not shown) [CBK009121]	87.8
COC(=O)CC1CCC(NC(=O)C(F)(F)F)CC1 (stereo not shown) [CBK009129]	97.4
CCN(CC)c1nc(Cl)c(C#N)c2c1CN(C)CC2 [CBK009140]	99.2
OCCN(CCO)c1ccccc1N(CCO)CCO [CBK009141]	85.7
O=C1NC(CCSC2=NCN=N2)Oc2ccccc21 (stereo not shown) [CBK009148]	107
Cn1sc(=O)c2cc(S(=O)(=O)NC3CC3)ccc21 [CBK009163]	86
COCCCNC(=O)c1cccs1 [CBK009164]	91.8
CC1(C)Cc2c(c(-c3ccco3)nc3n[nH]c(N)c23)CO1 [CBK009252]	84.3

SMILES	viability at 28.5 h, 10 µM [%]
COC(=O)c1cnc(Sc2ccc(Cl)cc2)nc1C(F)(F)F [CBK009299]	95.9
CCCCC(=O)NC(Nc1cc(C)ccn1)(C(F)(F)F)C(F)(F)F [CBK009331]	79.6
N#Cc1c(O)nsc1Nc1ccc(Cl)cc1 [CBK009446]	94.9
Cc1nn(Cc2nnn(CC(=O)O)n2)c(C)c1Br [CBK009457]	101
COC(=O)c1sc(N2CCCC2)c(S(=O)(=O)C(C)C)c1N [CBK009463]	87.9
C=C1S/C(=N\c2cc(Cl)cc(Cl)c2)NC1(CC)CC [CBK009484]	109
CCOC(=O)C1=CC2C(=NC3=C2CCCC3)C=C1 (stereo not shown) [CBK009652]	74.6
CCCC1C2C=CC(C2)C1/C=N/O (stereo not shown) [CBK009671]	83.4
CCc1oc2ccc(Cl)cc2c1C(=O)CCN1CCCCC1 [CBK009675C]	99.1
CN1CCCc2c1nc1ccc(Br)cc1c2N [CBK009692G]	58.9
NC(=S)N/N=C/c1c[nH]nc1-c1ccccc1 [CBK009705]	96.5
CC(C)(C)/N=C1/SCC(C)(/C=N\O)S1 (stereo not shown) [CBK009726]	98.7
CN(C)CCOC(=O)c1ccc2[nH]c3c(c2c1)CSCC3 [CBK009731C]	95.8
NC(=O)c1ccc(C#Cc2ccccc2)o1 [CBK009809]	94.8
Nc1nnc(C(=O)c2cc(Br)ccc2N)s1 [CBK009811]	102
C[N+](C)(C)C1=C([O-])c2ccccc2C1=O [CBK009824]	92.7
Nc1nonc1-c1nc2ccccc2o1 [CBK009829]	91
CCCCNCCOC1CCC[C@@H]1Cl (stereo partly shown) [CBK009839]	97.7
CCN(CC)CCOC(=O)C1(c2ccccc2)CCOc2ccccc21 (stereo not shown) [CBK009850C]	95.6
CC(=O)Nc1cc(NC(C)=O)c(O)c(C(=O)O)c1 [CBK009871]	88.6
